Read-outs that look alike come from different tables or passages of the source.
Columns and labels:
fungal inoculum = experiment: organism not typed; assay type: cell-based
[1] = test system: Magnaporthe grisea (Pyricularia oryzae); experiment: whole plant or invertebrate; assay type: in vivo, Magnaporthe grisea (Pyricularia oryzae) on M201 rice plants; conditions: for pest or weed control at 200 ppm: Pyricularia oryzae, 144 h, read-out: % Control RB
[2] = test system: Thanatephorus cucumeris (Rhizoctonia solani); experiment: In vivo test b) Rice Sheath Blight (RSB), 24 hour preapplication protectant, % control; conditions: read-out: % Control RSB
Protocol: Compounds were tested at 200 ppm as a twenty-four hour preapplication protectant test prior to inoculation.
b) Rice Sheath Blight (RSB)
Thanatephorus cucumeris (Rhizoctonia solani) mycelia were grown for six days in potato dextrose broth in shake culture. Drained mycelial mats were blended with an approximately equal weight of rice flour and five parts water. This slurry was dispensed onto the soil surface of pots containing rice seedlings previously treated with experimental compounds. The plants were placed in a mist chamber at 25°-28° C. for 48 hours. Following two more days at 25° C. and 70-90% relative humidity the plants were evaluated for percent disease control compared to check plants.

Candida albicans = experiment: Activity against Candida albicans in microtiter plates, % control of growth; assay type: cell-based
Protocol: The activity against Candida albicans was determined using the following test protocol.
Conidia and mycelium from the Candida albicans culture maintained on potato dextrose agar plates were lightly scraped off into yeast extract-dextrose broth (YDB) so that mostly conidia was used as inoculum. The conidial suspsension was strained through a double layer of cheesecloth to remove mycelial clumps. The inoculum mixture was placed in microtiter plates using a 12-tipped pipet. 175 microliters were placed in each well of the microliter plates and the plates were placed in the refrigerator overnight. There were two replications.
The compounds to be tested were dissolved in 1:1 acetone:methanol and 100 ppm of the compound solution were placed in a well of the prepared microtiter plates.
The microtiter plates were incubated for 7 days at room temperature after addition of the compounds. Percent control was visually estimated using a microtiter plate reading mirror. Readings were made at 1, 2, 3, and/or 7 days after treatment.

fungal mycelium = experiment: organism not typed; assay type: cell-based; conditions: read-out: % growth inhibition
[3] = 24 h, 1 day after treatment, read-out: % control of growth +1
[4] = 48 h, 2 days after treatment, read-out: % control of growth +2
[5] = 72 h, 3 days after treatment, read-out: % control of growth +3

Row | Structure (SMILES) | pest or weed control at 200 ppm [1] | pest or weed control at 200 ppm ([2]; 200 ppm, protectant) | inhibition of growth at 100 ppm (Candida albicans; [3]) | inhibition of growth at 100 ppm (Candida albicans; [4]) | inhibition of growth at 100 ppm (Candida albicans; [5]) | inhibition at 1 ppm (fungal mycelium) | other results
1 | CC#CCN1N=C(c2ccc(Cl)cc2Cl)CCC1=O [Compound 19] | 50% | 0% | – | – | – | – | inhibition at 100 ppm (fungal inoculum; read-out: % growth inhibition): 96.8%
2 | CCC#CCn1nc(-c2ccc(Cl)c(F)c2)ccc1=O [Compound 120] | 99% | – | 100% | 100% | 100% | 100% | –
3 | CC#CCN1N=C(c2ccc(Cl)cc2)CCC1=O [Compound 1] | 90% | 0% | – | – | – | – | inhibition at 5 ppm (fungal inoculum; read-out: % growth inhibition): 92.7%
4 | C#CC=CCN1N=C(c2ccc(Cl)cc2)CCC1=O [Compound 84] | 95% | 0% | – | – | – | – | inhibition at 50 ppm (fungal inoculum; read-out: % growth inhibition): 75.8%
5 | CCC#CCN1N=C(c2ccc(F)c(Cl)c2)CCC1=O [Compound 104] | 0% | 0% | – | – | – | – | inhibition at 5 ppm (fungal mycelium): 100%
6 | CC(F)C#CCn1nc(-c2ccc(Cl)cc2)ccc1=O (stereo not drawn) [Compound 130] | – | – | 100% | 100% | 100% | 100% | –
7 | O=C1CCC(c2ccc(Cl)cc2)=NN1Cc1cccc(Cl)c1 [Compound 105] | 75% | 0% | – | – | – | – | inhibition at 10 ppm (fungal mycelium): 33.3%
8 | O=C1CCC(c2ccc(Cl)cc2)=NN1CC#CCF [Compound 76, 6-(4-chlorophenyl)-2-(4'-fluoro-2'-butynyl)-4,5-dihydropyridazinone] | 0% | – | 100% | 100% | 100% | – | inhibition at 10 ppm (fungal mycelium): 100%
9 | C=CC#CCN1N=C(c2ccc(Cl)cc2)CCC1=O [Compound 56, 6-(4-chlorophenyl)-2-(3'-vinyl-2'-propynyl)-4,5-dihydropyridazinone] | 100% | – | 100% | 100% | 100% | – | inhibition at 1 ppm (fungal inoculum; read-out: % growth inhibition): 100%
10 | O=C1CCC(c2ccc(Cl)cc2)=NN1CC#CC(F)F [Compound 89] | 95% | 0% | – | – | – | – | inhibition at 10 ppm (fungal mycelium): 100%
11 | CC=CC#CCN1N=C(c2ccc(Cl)cc2)CCC1=O [Compound 101] | 75% | 0% | – | – | – | 100% | –
12 | C/C=C\C#CCN1N=C(c2ccc(Cl)cc2)CCC1=O [Compound 102] | 99% | 0% | – | – | – | 100% | –
13 | CCC#CCN1N=C(c2ccc(Cl)cc2)CCC1=S [Compound 153, 6-(4-chlorophenyl)-2-(2'-pentynyl)-4,5-dihydropyridazinthione] | 0% | – | 100% | 100% | 100% | – | inhibition at 10 ppm (fungal mycelium): 90.9%
14 | CCC#CCN1N=C(c2cc(F)c(Cl)c(F)c2)CCC1=O [Compound 90] | 0% | 95% | – | – | – | 100% | –
15 | O=C1CCC(c2ccc(Cl)cc2)=NN1Cc1ccccc1 [Compound 10] | – | – | – | – | – | – | inhibition at 100 ppm (fungal inoculum; read-out: % growth inhibition): 100%; pest or weed control at 200 ppm [2]: 80%
16 | CCC#CCN1N=C(c2ccc(Cl)cc2)CC=C1Cl [Compound 157, 6-(4-chlorophenyl)-3-chloro-2-(2'-pentyn-1-yl)-2,5-dihydropyridazine] | 10% | 0% | – | – | – | – | inhibition at 10 ppm (fungal mycelium): 100%
17 | CCC#CCN1N=C(c2ccc(Cl)cc2)CC=C1Br [Compound 160] | 0% | 95% | – | – | – | 100% | –
18 | CCC[CH2][Sn]([C]#CCN1N=C(c2ccc(Cl)cc2)CCC1=O)([CH2]CCC)[CH2]CCC [Compound 124, 6-(4-chlorophenyl)-2-(3'-tri-n-butyltin-2'-propynyl)-4,5-dihydropyridazinon] | – | – | – | – | – | – | % growth inhibition (fungal inoculum): 100.0%; % Control RB ([1]; 200 ppm, protectant): 0%
19 | CCC#CCN1N=C(c2ccc(SC)cc2)CCC1=O [Compound 61] | 90% | – | – | – | – | – | inhibition at 10 ppm (fungal inoculum; read-out: % growth inhibition): 95.3%
20 | CC(C)C#CCN1N=C(c2ccc(Cl)cc2)CCC1=O [Compound 34] | 90% | – | 100% | 100% | 100% | – | inhibition at 10 ppm (fungal inoculum; read-out: % growth inhibition): 100%
21 | C/C=C/C#CCN1N=C(c2ccc(Cl)cc2)CCC1=O [Compound 103] | 95% | 0% | – | – | – | 100% | –
22 | O=c1ccc(-c2ccc(Cl)cc2)nn1CC#CCCF [Compound 131] | – | – | 100% | 100% | 100% | 100% | –

Reference: US5726162A (priority 1996, dated 1998)
